Test results published in patent publication US20030109537A1, “Methods and materials for treating bone conditions” (priority 2001, published 2003).

Columns and labels:
[1] = system: osteoblasts and peritrabecular fibroblasts; assay: 3H-thymidine autoradiography; type: in vivo, rat; details: continuous PTH 1 week with continuous 3H-thymidine infusion, rats
Experimental: ^3H-thymidine autoradiography was performed to determine the role of cell proliferation in contributing to the increases in osteoblasts and fibroblasts following continuous administration of PTH. ^3H-thymidine was infused continuously for the entire 1-week duration of PTH treatment in order to label all proliferating cells. […] Thus, it seems that PTH-induced osteoblasts and fibroblasts originate by different cellular pathways.

[2] = system: PTH-induced marrow fibrosis and osteoclast resorption; assay: Bone histomorphometry in rats given trapidil, continuous PTH or both; type: in vivo, rat; details: continuous PTH, significant upon two-way ANOVA

## human PTH (1-34)
[1]
  3H-thymidine labeling of PTH-induced osteoblasts: unlabeled
  3H-thymidine labeling of most of the peritrabecular fibroblasts induced by PTH: labeled
[2]
  rate of mineral apposition: slightly increased
